This is an account of results in patent US10508120B2, “TYK2 inhibitors and uses thereof” (Nimbus Lakshmi, Inc., priority 2017, dated 2019).

In general, Kd refers to the equilibrium constant for the complex coming apart. A lower Kd goes with a tighter complex. A word on the inhibition: it is the share of the control response that was lost under treatment. What is called IC50 is the concentration at which inhibition is half-maximal.

Experiment [1] addresses human TYK2 (JH2domain-pseudokinase) (Homo sapiens (Human), UniProt P29597). Kind of experiment: TYK2 JH2 Domain Binding Assay (KINOMEscan). In outline: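 The construct was human TYK2 G556–D888 fused to the NFkB DNA-binding domain and expressed in HEK293 cells; unpurified extract was incubated with compound and liganded beads for 1 hour at room temperature.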
Another experiment addresses Tyk2 kinase domain (DH1) (Homo sapiens (Human), UniProt P29597). Description: Tyk2 Radioactive Kinase Assay. As to conditions: compound at 10 μM; ATP 10 μM; read-out: Tyk2 JH1% Inhibition @ 10 μM. In kind it is biochemical. In outline: (§1)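 Read-out is percent inhibition from a radioactive kinase reaction, measured with compound at 10 μM.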
Another experiment concerns the target JAK2 kinase domain (JH1) (Homo sapiens (Human), UniProt O60674). Description: JAK2 Radioactive Kinase Assay. In kind it is biochemical. As to conditions: compound at 10 μM; ATP 10 μM; read-out: JAK2 JH1% Inhibition @ 10 μM. An outline of the steps:
as §1

Experiment [2] concerns the target Tyk2/JAK2 (heterodimeric complex) (Homo sapiens (Human), UniProt P29597). Description: IL-12 Induced pSTAT4 in Human PBMC. In kind it is cell-based. The conditions noted are these: 1.7 ng/mL IL-12. The text has this: The IL-12 Induced pSTAT4 assay evaluates the inhibition of IL-12 induced STAT4 phophorylation mediated by Tyk2/JAK2 (heterodimeric complex).
The target in experiment [3] is JAK2/JAK2 homdimeric complex (Homo sapiens (Human), UniProt O60674). Kind of experiment: GM-CSF Induced pSTAT5 in Human PBMC. As to conditions: GM-CSF 5 ng/mL for 20 minutes, pSTAT5 by MSD, read-out: PBMC_GMCSF_pSTAT5 IC50. The experiment is classed as cell-based.
JAK2/JAK2 homdimeric complex, sequence (O60674 whole entry): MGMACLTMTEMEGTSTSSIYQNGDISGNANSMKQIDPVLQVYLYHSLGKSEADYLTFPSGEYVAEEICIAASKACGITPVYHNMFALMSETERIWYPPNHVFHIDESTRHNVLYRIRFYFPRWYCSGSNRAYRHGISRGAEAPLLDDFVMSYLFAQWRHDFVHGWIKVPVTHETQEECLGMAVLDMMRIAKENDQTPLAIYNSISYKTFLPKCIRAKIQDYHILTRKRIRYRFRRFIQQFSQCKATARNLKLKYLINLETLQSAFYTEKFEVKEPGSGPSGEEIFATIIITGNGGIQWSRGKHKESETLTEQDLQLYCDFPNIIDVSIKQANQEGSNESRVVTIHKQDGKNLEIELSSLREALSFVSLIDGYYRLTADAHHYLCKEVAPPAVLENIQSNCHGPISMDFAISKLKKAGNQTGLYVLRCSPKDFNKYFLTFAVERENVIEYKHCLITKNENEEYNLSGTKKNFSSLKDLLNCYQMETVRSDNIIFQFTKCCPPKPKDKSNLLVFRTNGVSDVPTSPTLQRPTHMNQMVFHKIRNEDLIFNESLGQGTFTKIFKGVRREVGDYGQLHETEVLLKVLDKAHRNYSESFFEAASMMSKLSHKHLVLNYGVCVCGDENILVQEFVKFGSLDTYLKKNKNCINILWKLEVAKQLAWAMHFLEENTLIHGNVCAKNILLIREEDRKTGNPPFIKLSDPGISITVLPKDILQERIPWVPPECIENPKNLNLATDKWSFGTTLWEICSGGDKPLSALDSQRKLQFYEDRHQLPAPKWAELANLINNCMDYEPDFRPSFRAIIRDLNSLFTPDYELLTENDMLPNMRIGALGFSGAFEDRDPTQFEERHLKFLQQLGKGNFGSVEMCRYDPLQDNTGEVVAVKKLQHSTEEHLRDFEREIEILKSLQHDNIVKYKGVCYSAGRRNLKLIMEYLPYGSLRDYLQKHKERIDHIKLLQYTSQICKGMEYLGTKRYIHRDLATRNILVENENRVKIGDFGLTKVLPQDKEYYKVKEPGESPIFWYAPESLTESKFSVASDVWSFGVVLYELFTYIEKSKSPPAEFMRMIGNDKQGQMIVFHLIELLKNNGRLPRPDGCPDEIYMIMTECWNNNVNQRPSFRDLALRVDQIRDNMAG
JAK2/JAK2 homdimeric complex, sequence (P32927 17-897 partner): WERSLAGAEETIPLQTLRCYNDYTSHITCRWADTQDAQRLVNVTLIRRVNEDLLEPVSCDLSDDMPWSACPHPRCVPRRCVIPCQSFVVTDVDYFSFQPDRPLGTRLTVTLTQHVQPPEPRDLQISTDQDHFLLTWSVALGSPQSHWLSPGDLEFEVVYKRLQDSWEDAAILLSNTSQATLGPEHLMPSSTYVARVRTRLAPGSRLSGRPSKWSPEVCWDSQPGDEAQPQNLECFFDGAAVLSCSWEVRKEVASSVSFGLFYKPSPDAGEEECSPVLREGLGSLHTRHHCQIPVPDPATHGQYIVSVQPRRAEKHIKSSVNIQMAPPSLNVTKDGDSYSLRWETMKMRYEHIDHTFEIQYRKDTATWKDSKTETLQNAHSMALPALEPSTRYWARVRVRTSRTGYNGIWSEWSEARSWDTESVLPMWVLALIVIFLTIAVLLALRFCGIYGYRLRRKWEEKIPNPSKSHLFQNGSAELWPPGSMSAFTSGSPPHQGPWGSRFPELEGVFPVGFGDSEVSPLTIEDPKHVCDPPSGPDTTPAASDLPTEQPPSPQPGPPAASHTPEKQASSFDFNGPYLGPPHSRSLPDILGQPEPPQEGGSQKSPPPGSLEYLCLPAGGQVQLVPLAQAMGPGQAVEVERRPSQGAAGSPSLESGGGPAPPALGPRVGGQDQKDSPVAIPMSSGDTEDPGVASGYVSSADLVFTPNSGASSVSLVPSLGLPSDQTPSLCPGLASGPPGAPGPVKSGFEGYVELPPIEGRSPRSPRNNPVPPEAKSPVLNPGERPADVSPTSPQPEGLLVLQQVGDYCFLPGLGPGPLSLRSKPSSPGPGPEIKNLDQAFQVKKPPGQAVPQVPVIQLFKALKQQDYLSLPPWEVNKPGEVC

Bounds are passed on as bounds.

Tyk2/JAK2 (heterodimeric complex), sequence (P29597 whole entry, other chains not shown): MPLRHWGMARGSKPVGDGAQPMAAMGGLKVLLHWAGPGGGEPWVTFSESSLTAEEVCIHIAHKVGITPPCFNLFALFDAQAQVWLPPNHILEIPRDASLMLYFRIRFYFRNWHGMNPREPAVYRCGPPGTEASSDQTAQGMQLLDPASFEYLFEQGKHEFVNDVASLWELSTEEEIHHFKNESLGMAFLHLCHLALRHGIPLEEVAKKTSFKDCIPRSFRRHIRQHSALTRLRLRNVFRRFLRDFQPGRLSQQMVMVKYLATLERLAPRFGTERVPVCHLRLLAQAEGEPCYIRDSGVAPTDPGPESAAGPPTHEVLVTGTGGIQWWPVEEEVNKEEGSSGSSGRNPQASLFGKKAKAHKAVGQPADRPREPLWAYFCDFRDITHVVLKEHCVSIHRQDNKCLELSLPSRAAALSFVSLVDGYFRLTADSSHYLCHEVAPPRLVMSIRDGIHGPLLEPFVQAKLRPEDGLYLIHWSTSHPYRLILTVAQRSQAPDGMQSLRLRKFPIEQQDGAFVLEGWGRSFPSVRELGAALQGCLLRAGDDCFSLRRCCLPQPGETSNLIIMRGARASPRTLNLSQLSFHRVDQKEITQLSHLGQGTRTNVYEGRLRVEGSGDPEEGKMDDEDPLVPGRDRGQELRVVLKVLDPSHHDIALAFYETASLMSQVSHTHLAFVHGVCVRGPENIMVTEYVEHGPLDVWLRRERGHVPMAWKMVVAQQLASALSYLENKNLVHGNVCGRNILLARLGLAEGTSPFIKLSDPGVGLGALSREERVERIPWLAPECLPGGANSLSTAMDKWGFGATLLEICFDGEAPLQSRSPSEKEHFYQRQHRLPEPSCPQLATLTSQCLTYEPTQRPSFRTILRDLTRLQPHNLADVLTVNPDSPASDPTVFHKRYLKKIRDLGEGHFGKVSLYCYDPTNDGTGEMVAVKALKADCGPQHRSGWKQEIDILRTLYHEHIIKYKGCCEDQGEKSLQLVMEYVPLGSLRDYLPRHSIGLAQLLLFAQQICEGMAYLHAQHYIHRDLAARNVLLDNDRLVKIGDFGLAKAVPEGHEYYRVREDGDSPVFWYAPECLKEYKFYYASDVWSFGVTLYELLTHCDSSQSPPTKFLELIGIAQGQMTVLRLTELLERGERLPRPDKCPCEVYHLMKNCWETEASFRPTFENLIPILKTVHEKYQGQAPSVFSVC
human TYK2 (JH2domain-pseudokinase), sequence (P29597 556-888): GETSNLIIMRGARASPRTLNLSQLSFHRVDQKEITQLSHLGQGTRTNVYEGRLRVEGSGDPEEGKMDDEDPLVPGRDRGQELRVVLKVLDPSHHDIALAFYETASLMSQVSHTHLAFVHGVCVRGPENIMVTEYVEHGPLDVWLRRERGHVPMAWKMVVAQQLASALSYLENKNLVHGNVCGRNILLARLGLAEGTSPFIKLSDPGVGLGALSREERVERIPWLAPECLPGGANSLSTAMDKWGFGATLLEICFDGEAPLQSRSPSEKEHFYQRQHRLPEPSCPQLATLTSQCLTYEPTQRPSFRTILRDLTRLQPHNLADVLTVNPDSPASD
JAK2 kinase domain (JH1), sequence (O60674 849-1124): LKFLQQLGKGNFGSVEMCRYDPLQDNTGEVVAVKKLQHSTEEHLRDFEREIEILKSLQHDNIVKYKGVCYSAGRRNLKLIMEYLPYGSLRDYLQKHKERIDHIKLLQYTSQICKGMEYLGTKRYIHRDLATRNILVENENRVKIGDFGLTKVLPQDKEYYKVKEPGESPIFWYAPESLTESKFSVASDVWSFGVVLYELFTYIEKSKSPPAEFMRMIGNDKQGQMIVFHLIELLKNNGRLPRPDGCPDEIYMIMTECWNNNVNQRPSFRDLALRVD
Tyk2 kinase domain (DH1), sequence (P29597 897-1176): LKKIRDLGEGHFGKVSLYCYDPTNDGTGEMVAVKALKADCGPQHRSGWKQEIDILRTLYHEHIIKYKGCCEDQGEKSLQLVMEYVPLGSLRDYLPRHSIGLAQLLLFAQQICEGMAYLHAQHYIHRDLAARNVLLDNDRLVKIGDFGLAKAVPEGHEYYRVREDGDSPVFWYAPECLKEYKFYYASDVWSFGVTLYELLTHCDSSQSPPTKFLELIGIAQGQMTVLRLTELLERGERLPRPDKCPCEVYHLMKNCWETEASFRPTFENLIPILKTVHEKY

`CNc1cc(Nc2cc(F)cnc2OC(C)C)nc2c(C(=O)N[C@H]3C[C@H]3F)cnn12` [I-211] returned a Kd in experiment [1] of 0.2 to 1 nM. Further, the inhibition at 10 µM on Tyk2 kinase domain (DH1) and at JAK2 kinase domain (JH1) was less than 50% throughout. The values for the IC50 in experiment [2] and in experiment [3] were 100 to 500 nM and greater than 50000 nM, respectively.

For the compound `CNc1cc(Nc2cc(C)cn(-c3cnn(C)c3)c2=O)nc2c(C(=O)NC3CCC3)cnn12` [I-234], in experiment [1], the Kd is less than 0.2 nM. Moreover, the inhibition at 10 µM on Tyk2 kinase domain (DH1) and at JAK2 kinase domain (JH1) was less than 50% each time. The IC50 is less than 100 nM in experiment [2] and greater than 2500 nM in experiment [3].

In experiment [1], `CNc1cc(Nc2cccc(N3CCCC3=O)n2)nc2c(C(=O)NC3CC3)cnn12` [I-7] displayed a Kd of less than 0.2 nM. The inhibition at 10 µM at Tyk2 kinase domain (DH1) and on JAK2 kinase domain (JH1) was less than 50% in each case. The IC50 in experiment [2] was less than 100 nM; in experiment [3], greater than 12500 nM.

In experiment [1], `CNc1cc(Nc2cccn(-c3ccc(OC)cn3)c2=O)nc2c(C(=O)NC3CCC3)cnn12` [I-266] yielded a Kd of less than 0.2 nM. Moreover, the inhibition at 10 µM at Tyk2 kinase domain (DH1) and on JAK2 kinase domain (JH1) was less than 50% each time. Also, the IC50 was less than 100 nM in experiment [2] and greater than 12500 nM in experiment [3].

For `CNc1cc(Nc2cccnc2OC2CC2)nc2c(C(=O)N[C@@H]3CC[C@H]3O)cnn12` (stereo in doubt) [I-366, 5-((2-cyclopropoxypyridin-3-yl)amino)-N-((1R,2R)-2-hydroxycyclobutyl)-7-(methylamino)pyrazolo[1,5-a]pyrimidine-3-carboxamide], the Kd in experiment [1] is less than 0.2 nM. The inhibition at 10 µM at Tyk2 kinase domain (DH1) and on JAK2 kinase domain (JH1) was less than 50% in each case. Also, the IC50 in experiment [2] was less than 100 nM; in experiment [3], greater than 50000 nM.

In the case of `CNc1cc(Nc2cccn([C@H]3CC[C@H](OC)CC3)c2=O)nc2c(C(=O)N[C@H]3CC[C@H]3O)cnn12` [I-539], the Kd in experiment [1] is less than 0.2 nM. The inhibition at 10 µM at Tyk2 kinase domain (DH1) and at JAK2 kinase domain (JH1) was less than 50% in each case. The IC50 in experiment [2] was less than 100 nM; in experiment [3], greater than 50000 nM.

Take `CNc1cc(Nc2cccnc2OC)nc2c(C(=O)NC3CCC3)cnn12` [I-4]: the Kd in experiment [1] is less than 0.2 nM. Moreover, the inhibition at 10 µM at Tyk2 kinase domain (DH1) and on JAK2 kinase domain (JH1) was less than 50% in each case. In addition, the IC50 is less than 100 nM in experiment [2] and greater than 12500 nM in experiment [3].

For `CNc1cc(Nc2cccn(-c3ccc(C)nn3)c2=O)nc2c(C(=O)NC3CCC3)cnn12` [I-141], the equilibrium dissociation constant (Kd) in experiment [1] was less than 0.2 nM. In addition, the inhibition at 10 µM at Tyk2 kinase domain (DH1) and on JAK2 kinase domain (JH1) was less than 50% each time. Moreover, the IC50 in experiment [2] is less than 100 nM; in experiment [3], greater than 50000 nM.

As to `[2H]C([2H])([2H])Oc1ncccc1Nc1cc(NC)n2ncc(C(=O)NC3CCC3)c2n1` [I-176], the Kd in experiment [1] was less than 0.2 nM. Also, the inhibition at 10 µM at Tyk2 kinase domain (DH1) and at JAK2 kinase domain (JH1) was less than 50% in each case. Besides, the IC50 in experiment [2] is less than 100 nM; in experiment [3], greater than 50000 nM.

As for `CNc1cc(Nc2cc(F)cnc2OCCOC)nc2c(C(=O)NC3CCC3)cnn12` [I-290], the Kd in experiment [1] was in the range of 0.2 to 1 nM. Also, the inhibition at 10 µM on Tyk2 kinase domain (DH1) and at JAK2 kinase domain (JH1) was less than 50% each time. Further, the IC50 is less than 100 nM in experiment [2] and greater than 2500 nM in experiment [3].

For the compound `CNc1cc(Nc2cccn(-c3cccc(C)n3)c2=O)nc2c(C(=O)N[C@H]3C[C@H]3F)cnn12` [I-131], in experiment [1], the Kd was in the range of 1 to 10 nM. The inhibition at 10 µM at Tyk2 kinase domain (DH1) and on JAK2 kinase domain (JH1) was less than 50% throughout. Also, the IC50 in experiment [2] was less than 100 nM; in experiment [3], greater than 12500 nM.

The compound `CNc1cc(Nc2cccn([C@@H]3CCCOC3)c2=O)nc2c(C(=O)N[C@H]3CC[C@H]3O)cnn12` [I-751] registered a Kd in experiment [1] of less than 0.2 nM. In addition, the inhibition at 10 µM on Tyk2 kinase domain (DH1) and at JAK2 kinase domain (JH1) was less than 50% each time. The IC50 was less than 100 nM in experiment [2] and greater than 12500 nM in experiment [3].

Take `CNc1cc(Nc2cccn(C3CCN(CC(F)F)CC3)c2=O)nc2c(C(=O)NC3CCC3)cnn12` [I-192]: the Kd in experiment [1] was less than 0.2 nM. For the same compound, the inhibition at 10 µM at Tyk2 kinase domain (DH1) and on JAK2 kinase domain (JH1) was less than 50% in each case. Moreover, the IC50 in experiment [2] was less than 100 nM; in experiment [3] it was greater than 12500 nM.

`CNc1cc(Nc2cc(Cl)cn(C3CCCOC3)c2=O)nc2c(C(=O)NC3CC3)cnn12` (stereo not shown) [I-711] showed a Kd in experiment [1] of less than 0.2 nM. Also, the inhibition at 10 µM on Tyk2 kinase domain (DH1) and at JAK2 kinase domain (JH1) was less than 50% throughout. Moreover, the IC50 in experiment [2] is less than 100 nM; in experiment [3] it was greater than 50000 nM.
